Test results reported in PubChem BioAssay (NCI).
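Assay format: 96-well plates, 48-hour exposure. Here, GI50 denotes the concentration required for 50% inhibition of growth. TGI: concentration producing complete growth inhibition.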

How the values were obtained:
Test in all cases: NCI-60 cell line screen, 48 h
786-0 renal = tested on: 786-0 renal
A498 renal = tested on: A498 renal
A549 NSCLC = tested on: A549 NSCLC
ACHN renal = tested on: ACHN renal
BT-549 breast = tested on: BT-549 breast
CAKI-1 renal = tested on: CAKI-1 renal
CCRF-CEM leukemia = tested on: CCRF-CEM leukemia
COLO 205 colon = tested on: COLO 205 colon
DU-145 prostate = tested on: DU-145 prostate
EKVX NSCLC = tested on: EKVX NSCLC
HCC-2998 colon = tested on: HCC-2998 colon
HCT-116 colon = tested on: HCT-116 colon
HCT-15 colon = tested on: HCT-15 colon
HL-60(TB) leukemia = tested on: HL-60(TB) leukemia
HOP-62 NSCLC = tested on: HOP-62 NSCLC
HOP-92 NSCLC = tested on: HOP-92 NSCLC
HS 578T breast = tested on: HS 578T breast
HT29 colon = tested on: HT29 colon
IGROV1 ovarian = tested on: IGROV1 ovarian
KM12 colon = tested on: KM12 colon
LOX IMVI melanoma = tested on: LOX IMVI melanoma
M14 melanoma = tested on: M14 melanoma
MALME-3M melanoma = tested on: MALME-3M melanoma
MCF7 breast = tested on: MCF7 breast
MDA-MB-231 breast = tested on: MDA-MB-231 breast
MDA-MB-435 = tested on: MDA-MB-435
MOLT-4 leukemia = tested on: MOLT-4 leukemia
NCI-H226 lung = tested on: NCI-H226 lung
NCI-H23 lung = tested on: NCI-H23 lung
NCI-H460 lung = tested on: NCI-H460 lung
NCI-H522 lung = tested on: NCI-H522 lung
NCI/ADR-RES ovarian = tested on: NCI/ADR-RES ovarian
OVCAR-3 ovarian = tested on: OVCAR-3 ovarian
OVCAR-4 ovarian = tested on: OVCAR-4 ovarian
OVCAR-5 ovarian = tested on: OVCAR-5 ovarian
OVCAR-8 ovarian = tested on: OVCAR-8 ovarian
PC-3 prostate = tested on: PC-3 prostate
RPMI-8226 leukemia = tested on: RPMI-8226 leukemia
RXF 393 renal = tested on: RXF 393 renal
SF-268 CNS = tested on: SF-268 CNS
SF-295 CNS = tested on: SF-295 CNS
SF-539 CNS = tested on: SF-539 CNS
SK-MEL-2 melanoma = tested on: SK-MEL-2 melanoma
SK-MEL-28 melanoma = tested on: SK-MEL-28 melanoma
SK-MEL-5 melanoma = tested on: SK-MEL-5 melanoma
SK-OV-3 ovarian = tested on: SK-OV-3 ovarian
SN12C renal = tested on: SN12C renal
SNB-19 CNS = tested on: SNB-19 CNS
SNB-75 CNS = tested on: SNB-75 CNS
SW-620 colon = tested on: SW-620 colon
T-47D breast = tested on: T-47D breast
TK-10 renal = tested on: TK-10 renal
U251 CNS = tested on: U251 CNS
UACC-257 melanoma = tested on: UACC-257 melanoma
UACC-62 melanoma = tested on: UACC-62 melanoma
UO-31 renal = tested on: UO-31 renal

Compound CC1(C)CCC2(CC1)N[C@@H](C(=O)N[C@@H]1CC[C@@H](C(N)=O)OC1)[C@H](c1ccnc(Cl)c1F)[C@]21C(=O)Nc2cc(Cl)ccc21 has a GI50 (786-0 renal) of 2.77 µM, a TGI (786-0 renal) of 8.51 µM and a GI50 (A498 renal) of 0.111 µM. For the same compound, the TGI (A498 renal) was 3.95 µM, the GI50 (A549 NSCLC) was 0.26 µM and the TGI (A549 NSCLC) was 13.1 µM. The GI50 (ACHN renal) was 0.139 µM, the TGI (ACHN renal) was 2.28 µM and the GI50 (BT-549 breast) was 2.45 µM. The TGI (BT-549 breast) was 7.52 µM, the GI50 (CAKI-1 renal) was 0.0622 µM and the TGI (CAKI-1 renal) was 4.15 µM. It also gave a GI50 (CCRF-CEM leukemia) of 3.01 µM, a TGI (CCRF-CEM leukemia) of 13.3 µM and a GI50 (COLO 205 colon) of 2.11 µM. It also gave a TGI (COLO 205 colon) of 5.39 µM, a GI50 (DU-145 prostate) of 3.94 µM and a TGI (DU-145 prostate) of 16.1 µM. The GI50 (EKVX NSCLC) was 2.38 µM, the TGI (EKVX NSCLC) was 7.6 µM and the GI50 (HCC-2998 colon) was 1.7 µM. The TGI (HCC-2998 colon) was 3.21 µM, the GI50 (HCT-116 colon) was 0.07 µM and the TGI (HCT-116 colon) was 6.96 µM. It also gave a GI50 (HCT-15 colon) of 2.88 µM, a TGI (HCT-15 colon) of 10.1 µM and a GI50 (HL-60(TB) leukemia) of 2.36 µM. For the same compound, the TGI (HL-60(TB) leukemia) was 5.59 µM, the GI50 (HOP-62 NSCLC) was 2.31 µM and the TGI (HOP-62 NSCLC) was 7.83 µM. For the same compound, the GI50 (HOP-92 NSCLC) was 1.78 µM, the TGI (HOP-92 NSCLC) was 4.79 µM and the GI50 (HS 578T breast) was 2.33 µM. It also gave a TGI (HS 578T breast) of 10.4 µM, a GI50 (HT29 colon) of 2.22 µM and a TGI (HT29 colon) of 6.01 µM. The GI50 (IGROV1 ovarian) was 0.793 µM, the TGI (IGROV1 ovarian) was 6.13 µM and the GI50 (KM12 colon) was 2.39 µM. It also gave a TGI (KM12 colon) of 6.23 µM, a GI50 (LOX IMVI melanoma) of 0.124 µM and a TGI (LOX IMVI melanoma) of 2 µM. The GI50 (M14 melanoma) was 2.14 µM, the TGI (M14 melanoma) was 5.63 µM and the GI50 (MALME-3M melanoma) was 0.0482 µM. For the same compound, the TGI (MALME-3M melanoma) was 2.03 µM, the GI50 (MCF7 breast) was 0.037 µM and the TGI (MCF7 breast) was 2.28 µM. For the same compound, the GI50 (MDA-MB-231 breast) was 1.92 µM, the TGI (MDA-MB-231 breast) was 3.98 µM and the GI50 (MDA-MB-435) was 2.44 µM. It also gave a TGI (MDA-MB-435) of 6.22 µM, a GI50 (MOLT-4 leukemia) of 0.107 µM and a TGI (MOLT-4 leukemia) of 3.13 µM. For the same compound, the GI50 (NCI-H226 lung) was 0.0935 µM, the TGI (NCI-H226 lung) was 0.804 µM and the GI50 (NCI-H23 lung) was 3.73 µM. It also gave a TGI (NCI-H23 lung) of 15.4 µM, a GI50 (NCI-H460 lung) of 0.179 µM and a TGI (NCI-H460 lung) of 2.05 µM. The GI50 (NCI-H522 lung) was 2.01 µM, the TGI (NCI-H522 lung) was 4.46 µM and the GI50 (NCI/ADR-RES ovarian) was 16.3 µM. The TGI (NCI/ADR-RES ovarian) was 45.5 µM, the GI50 (OVCAR-3 ovarian) was 2.75 µM and the TGI (OVCAR-3 ovarian) was 8.2 µM. The GI50 (OVCAR-4 ovarian) was 3.19 µM, the TGI (OVCAR-4 ovarian) was 14.1 µM and the GI50 (OVCAR-5 ovarian) was 2.15 µM. It also gave a TGI (OVCAR-5 ovarian) of 5.9 µM, a GI50 (OVCAR-8 ovarian) of 3.92 µM and a TGI (OVCAR-8 ovarian) of 27.7 µM. It also gave a GI50 (PC-3 prostate) of 2.26 µM, a TGI (PC-3 prostate) of 6.25 µM and a GI50 (RPMI-8226 leukemia) of 2.12 µM. For the same compound, the TGI (RPMI-8226 leukemia) was 5.57 µM, the GI50 (RXF 393 renal) was 2.26 µM and the TGI (RXF 393 renal) was 5.67 µM. For the same compound, the GI50 (SF-268 CNS) was 3.5 µM, the TGI (SF-268 CNS) was 19.1 µM and the GI50 (SF-295 CNS) was 2.14 µM. The TGI (SF-295 CNS) was 5.04 µM, the GI50 (SF-539 CNS) was 1.93 µM and the TGI (SF-539 CNS) was 4.66 µM. For the same compound, the GI50 (SK-MEL-2 melanoma) was 2.16 µM, the TGI (SK-MEL-2 melanoma) was 5.02 µM and the GI50 (SK-MEL-28 melanoma) was 1.95 µM. The TGI (SK-MEL-28 melanoma) was 4.06 µM, the GI50 (SK-MEL-5 melanoma) was 0.743 µM and the TGI (SK-MEL-5 melanoma) was 2.17 µM. For the same compound, the GI50 (SK-OV-3 ovarian) was 3 µM, the TGI (SK-OV-3 ovarian) was 9.27 µM and the GI50 (SN12C renal) was 3.13 µM. The TGI (SN12C renal) was 12 µM, the GI50 (SNB-19 CNS) was 3.38 µM and the TGI (SNB-19 CNS) was 15.2 µM. The GI50 (SNB-75 CNS) was 2.17 µM, the TGI (SNB-75 CNS) was 9.38 µM and the GI50 (SW-620 colon) was 3.81 µM. It also gave a TGI (SW-620 colon) of 23.1 µM, a GI50 (T-47D breast) of 2.58 µM and a TGI (T-47D breast) of 7.85 µM. For the same compound, the GI50 (TK-10 renal) was 3.13 µM, the TGI (TK-10 renal) was 15.7 µM and the GI50 (U251 CNS) was 2.8 µM. It also gave a TGI (U251 CNS) of 9.64 µM, a GI50 (UACC-257 melanoma) of 0.19 µM and a TGI (UACC-257 melanoma) of 2.53 µM. It also gave a GI50 (UACC-62 melanoma) of 0.0556 µM, a TGI (UACC-62 melanoma) of 2.05 µM and a GI50 (UO-31 renal) of 0.261 µM. For the same compound, the TGI (UO-31 renal) was 3.04 µM.
